Assay results reported in article PMC5732813, “Novel piplartine-containing ruthenium complexes: synthesis, cell growth inhibition, apoptosis induction and ROS production on HCT116 cells” (Oncotarget, 2017).
Read-outs that look alike come from different tables or passages of the source.

Experiments:
[1] = tested on: MRC-5 (human lung fibroblast); test: Cytotoxic activity, alamar blue assay, MRC-5 non-cancer cells; type: cell-based; details: Homo sapiens
Source text: HCT116 (human colon carcinoma), HepG2 (human hepatocellular carcinoma), HSC-3 (human oral squamous cell carcinoma), SCC-4 (human oral squamous cell carcinoma), SCC-9 (human oral squamous cell carcinoma), HL-60 (human promyelocytic leukemia), K-562 (human chronic myelogenous leukemia), B16-F10 (murine melanoma), MRC-5 (human lung fibroblast), WT SV40 MEF (wild-type immortalized mouse embryonic fibroblast) and BAD KO SV40 MEF (BAD gene knockout immortalized mouse embryonic fibroblast) cell lines were obtained from the American Type Culture Collection (ATCC, Manassas, VA, USA) and cultured in RPMI-1640 medium (Gibco-BRL, Gaithersburg, MD, USA) with 10% fetal bovine serum (Life, Carlsbad, CA, USA), 2 mM L-glutamine (Vetec Química Fina, Duque de Caxias, RJ, Brazil) and 50 μg/mL gentamycin (Life, Carlsbad, CA, USA). Adherent cells were collected by treatment with 0.25% trypsin EDTA solution (Gibco-BRL, Gaithersburg, MD, USA). All cell lines were cultured in flasks at 37°C in 5% CO2 and sub-cultured every 3-4 days to maintain exponential growth.
Cell viability was quantified using the alamar blue assay, according to Ahmed et al.. Cells were inserted in 96-well plates for all experiments (7 x 10^4 cells/mL for adherent cells or 3 x 10^5 cells/mL for suspended cells in 100 μL of medium). […] Negative controls received the vehicle that was used for diluting the compounds tested.

calf thymus DNA (ctDNA) = test: DNA intercalation assay (ethidium bromide displacement); type: binding; details: ctDNA 15 μg/mL, ethidium bromide 1.5 μM; complexes 5, 10 and 20 μM; doxorubicin 10 μM; data not shown
Procedure: DNA intercalation was assessed by examining the ability of the complexes to displace ethidium bromide from ctDNA (Sigma-Aldrich Co., Saint Louis, MO, USA). Sexplicate assays (100 μL) were conducted in 96-well plates and contained 15 μg/mL ctDNA, 1.5 μM ethidium bromide and 5, 10 and 20 μM of each complexes in saline solution. […] Fluorescence was measured using excitation and emission wavelengths of 320 nm and 600 nm, respectively using the spectraMax Microplate Reader (Molecular Devices, Sunnyvale, CA, EUA).

HCT116 cells [2] = test: Cellular reactive oxygen species levels (DCF-DA); type: cell-based, human; details: 1 h, PL 10 μM
Procedure: The levels of ROS were measured according to previously described using DCF-DA (Sigma-Aldrich Co., Saint Louis, MO, USA). In brief, cells were treated with the complexes for 1 and 3 h. Then, the cells were collected, washed with saline and resuspended in FACS tubes with saline containing 5 μM DCF-DA for 30 min.

HCT116 cells [3] = details: HCT116, 24 and 48h; PL 10 μM
Procedure: (§1) To investigate the mechanisms involved in cytotoxic action of the complexes, a new set of experiments was performed. In all experiments, 2 mL of a HCT116 cell solution (7 x 10^4 cells/mL) was inserted in 24-well plates and incubated overnight to allow the cells to adhere to the plate surface. […] The negative control was treated with the vehicle (0.1% of a solution containing 70% sorbitol, 25% tween 80 and 5% water) used for diluting the compounds tested. […] Cell viability was assessed using trypan blue exclusion assay for all experiments.
For apoptosis detection, we used a FITC Annexin V Apoptosis Detection Kit I (BD Biosciences, San Jose, CA, EUA) and the analysis were performed according to the manufacturer’s instructions. Briefly, the cells treated were collected after the indicated time, washed twice with cold saline and resuspended in 300 μL binding buffer. Then, it was added 5 μL of Annexin V-FITC staining buffer and 5 μL of propidium iodide. The mixture was incubated in the dark at 37°C for 15 min. Cell fluorescence was measured by flow cytometry as described above.
In a new set of experiments, the cells were pre-treated for 1 h with 5 mM NAC, then incubated with the complexes in the established concentration for 48 h. The cells were then trypsinized and the FITC Annexin V Apoptosis Detection assay and trypan blue exclusion assay were conducted as described above.

caspase-3 = test: Caspase-3 activation assay (DEVD-pNA, colorimetric); details: HCT116, DEVD-pNA, 48h; PL 10 μM
Procedure: as §1
A caspase-3 colorimetric assay kit (Sigma-Aldrich Co., Saint Louis, MO, USA) was used to investigate caspase-3 activation on complexes-treated HCT116 cells based on the cleavage of DEVD-pNA and the analysis was performed according to the manufacturer’s instructions. Briefly, cells were lysed by incubation with cell lysis buffer on ice for 10 min and then centrifuged. Enzyme reactions were carried out in a 96-well flat-bottom microplate. To each reaction mixture, 5 μL cell lysate was added. Absorbance at 405 nm was measured using the SpectraMax 190 Microplate Reader (Molecular Devices, Sunnyvale, CA, EUA). The results were expressed as specific activity (IU/mg protein) of caspase-3.

HCT116 cells [4] = test: Measurement of the mitochondrial transmembrane potential (rhodamine 123); details: HCT116, rhodamine 123, 24h; PL 10 μM
Procedure: as §1
Mitochondrial transmembrane potential was determined by the retention of the dye rhodamine 123 [59]. Cells were incubated with rhodamine 123 (5 μg/mL, Sigma-Aldrich Co., Saint Louis, MO, USA) at 37 °C for 15 min in the dark and washed with saline. The cells were then incubated again in saline at 37 °C for 30 min in the dark and cell fluorescence was determined by flow cytometry as described above.

Compound | IC50 ([1]; MRC5, MRC-5 non-cancer cells, 72h of incubation, alamar blue, with 95% confidence interval, read-out: IC50) [µM] | DNA intercalation (decrease of ethidium bromide fluorescence) (calf thymus DNA (ctDNA)) | IC50 ([1]; MRC5, 72 h) [µM] | intracellular ROS levels (HCT116 cells [2]) | early and late apoptosis (annexin-V/PI) (HCT116 cells [3]) | activation of caspase-3 (caspase-3) | mitochondrial depolarization (HCT116 cells [4])
COc1cccc2c1C(=O)c1c(O)c3c(c(O)c1C2=O)C[C@@](O)(C(=O)CO)C[C@@H]3O[C@H]1C[C@H](N)[C@H](O)[C@H](C)O1 [Doxorubicin] | 1.3 | significantly reduced fluorescence | – | – | – | – | –
COc1cc(/C=C/C(=O)N2CCC=CC2=O)cc(OC)c1OC [Piplartine] | – | – | 17.3 | induced increasing oxidative stress | induced increasing in the early and late apoptosis | activation of caspase-3 | Mitochondrial depolarization
